Measured values taken from the NIST ThermoML archive (doi:10.1021/je020191g).
Values joined by “and” are separate entries in the source; they are usually repeats but may differ in a detail not shown here. Equal values may be shown once. Numbers after ± are expanded uncertainties.

Tests used:
[1] = 101.33 kPa, Liquid
[2] = xn = mol fraction of the nth substance listed; conditions: 101.33 kPa, Liquid

**Q.** What does the source list for C1CCNC1 [pyrrolidine]?
**A.** mass density ([1]; 298.15 K): 854.6 ± 4.2 kg/m3; mass density ([1]; 323.15 K): 833.7 ± 4.1 kg/m3

**Q.** For C1CCNC1 [pyrrolidine] + O, which mass density ([2]; 298.15 K, x1 = 0.099) is on record?
**A.** Its mass density is 976 ± 4.8 kg/m3.

**Q.** What about the mass density ([2]; 298.15 K, x1 = 0.1) of the same compound?
**A.** Its mass density is 973.9 ± 4.8 kg/m3.

**Q.** And the mass density ([2]; 298.15 K, x1 = 0.199)?
**A.** The mass density was 956.6 ± 4.7 kg/m3.

**Q.** And the mass density ([2]; 298.15 K, x1 = 0.204)?
**A.** Its mass density is 952.8 ± 4.7 kg/m3.

**Q.** What about the mass density ([2]; 298.15 K, x1 = 0.297) of the same compound?
**A.** The mass density was 934.7 ± 4.6 kg/m3.

**Q.** And the mass density ([2]; 298.15 K, x1 = 0.299)?
**A.** The mass density was 938.8 ± 4.7 kg/m3.

**Q.** What about the mass density ([2]; 298.15 K, x1 = 0.396) of the same compound?
**A.** Its mass density is 925.8 ± 4.6 kg/m3.

**Q.** What about the mass density ([2]; 298.15 K, x1 = 0.399) of the same compound?
**A.** The mass density was 925.4 ± 4.6 kg/m3.

**Q.** What about the mass density ([2]; 298.15 K, x1 = 0.497) of the same compound?
**A.** The mass density was 912.1 ± 4.5 kg/m3.

**Q.** And the mass density ([2]; 298.15 K, x1 = 0.498)?
**A.** Its mass density is 911.5 ± 4.5 kg/m3.

**Q.** And the mass density ([2]; 298.15 K, x1 = 0.589)?
**A.** The mass density was 901.1 ± 4.4 kg/m3.

**Q.** What about the mass density ([2]; 298.15 K, x1 = 0.596) of the same compound?
**A.** The mass density was 900.2 ± 4.4 kg/m3.

**Q.** What about the mass density ([2]; 298.15 K, x1 = 0.675) of the same compound?
**A.** Its mass density is 893.8 ± 4.4 kg/m3.

**Q.** What about the mass density ([2]; 298.15 K, x1 = 0.697) of the same compound?
**A.** Its mass density is 893.4 ± 4.4 kg/m3.

**Q.** And the mass density ([2]; 298.15 K, x1 = 0.786)?
**A.** The mass density was 879.9 ± 4.3 kg/m3.

**Q.** And the mass density ([2]; 298.15 K, x1 = 0.796)?
**A.** The mass density was 877.1 ± 4.3 kg/m3.

**Q.** And the mass density ([2]; 298.15 K, x1 = 0.882)?
**A.** Its mass density is 865.3 ± 4.3 kg/m3.

**Q.** And the mass density ([2]; 298.15 K, x1 = 0.888)?
**A.** Its mass density is 865.6 ± 4.3 kg/m3.

**Q.** What about the mass density ([2]; 298.15 K, x1 = 0.995) of the same compound?
**A.** Its mass density is 852.9 ± 4.2 kg/m3 and 856.2 ± 4.2 kg/m3.

**Q.** What about the mass density ([2]; 323.15 K, x1 = 0.099) of the same compound?
**A.** Its mass density is 960 ± 4.7 kg/m3.

**Q.** What about the mass density ([2]; 323.15 K, x1 = 0.1) of the same compound?
**A.** Its mass density is 963.6 ± 4.8 kg/m3.

**Q.** What about the mass density ([2]; 323.15 K, x1 = 0.199) of the same compound?
**A.** Its mass density is 941.5 ± 4.6 kg/m3.

**Q.** And the mass density ([2]; 323.15 K, x1 = 0.204)?
**A.** Its mass density is 937.2 ± 4.6 kg/m3.

**Q.** What about the mass density ([2]; 323.15 K, x1 = 0.297) of the same compound?
**A.** Its mass density is 921.2 ± 4.6 kg/m3.

**Q.** And the mass density ([2]; 323.15 K, x1 = 0.299)?
**A.** Its mass density is 924.5 ± 4.6 kg/m3.

**Q.** And the mass density ([2]; 323.15 K, x1 = 0.396)?
**A.** Its mass density is 904 ± 4.5 kg/m3.

**Q.** What about the mass density ([2]; 323.15 K, x1 = 0.399) of the same compound?
**A.** The mass density was 907.4 ± 4.5 kg/m3.

**Q.** And the mass density ([2]; 323.15 K, x1 = 0.497)?
**A.** Its mass density is 891.1 ± 4.4 kg/m3.

**Q.** What about the mass density ([2]; 323.15 K, x1 = 0.498) of the same compound?
**A.** The mass density was 891.2 ± 4.4 kg/m3.

**Q.** What about the mass density ([2]; 323.15 K, x1 = 0.589) of the same compound?
**A.** Its mass density is 883.5 ± 4.4 kg/m3.

**Q.** And the mass density ([2]; 323.15 K, x1 = 0.596)?
**A.** The mass density was 879.9 ± 4.3 kg/m3.

**Q.** What about the mass density ([2]; 323.15 K, x1 = 0.675) of the same compound?
**A.** Its mass density is 871.3 ± 4.3 kg/m3.

**Q.** And the mass density ([2]; 323.15 K, x1 = 0.697)?
**A.** Its mass density is 868.5 ± 4.3 kg/m3.

**Q.** What about the mass density ([2]; 323.15 K, x1 = 0.786) of the same compound?
**A.** The mass density was 858.3 ± 4.2 kg/m3.

**Q.** What about the mass density ([2]; 323.15 K, x1 = 0.796) of the same compound?
**A.** The mass density was 858.6 ± 4.2 kg/m3.

**Q.** And the mass density ([2]; 323.15 K, x1 = 0.882)?
**A.** Its mass density is 843.5 ± 4.2 kg/m3.

**Q.** What about the mass density ([2]; 323.15 K, x1 = 0.888) of the same compound?
**A.** Its mass density is 845.6 ± 4.2 kg/m3.

**Q.** What about the mass density ([2]; 323.15 K, x1 = 0.995) of the same compound?
**A.** The mass density was 834.6 ± 4.1 kg/m3 and 832.8 ± 4.1 kg/m3.

**Q.** Which results are given for C1COCCN1 [tetrahydro-1,4-oxazine]?
**A.** mass density ([1]; 298.15 K): 996 ± 4.9 kg/m3; mass density ([1]; 333.15 K): 965.9 ± 4.7 kg/m3

**Q.** With C1COCCN1 [tetrahydro-1,4-oxazine] + O as the compound, how does the mass density ([2]; 298.15 K, x1 = 0.1) read?
**A.** Its mass density is 1023.2 ± 5 kg/m3 and 1010.6 ± 5 kg/m3.

**Q.** What about the mass density ([2]; 298.15 K, x1 = 0.199) of the same compound?
**A.** Its mass density is 1031.5 ± 5.1 kg/m3 and 1025.9 ± 5 kg/m3.

**Q.** What about the mass density ([2]; 298.15 K, x1 = 0.298) of the same compound?
**A.** Its mass density is 1030.9 ± 5.1 kg/m3.

**Q.** And the mass density ([2]; 298.15 K, x1 = 0.299)?
**A.** Its mass density is 1029.6 ± 5.1 kg/m3.

**Q.** And the mass density ([2]; 298.15 K, x1 = 0.398)?
**A.** The mass density was 1029.8 ± 5.1 kg/m3 and 1028.4 ± 5 kg/m3.

**Q.** What about the mass density ([2]; 298.15 K, x1 = 0.497) of the same compound?
**A.** Its mass density is 1023.4 ± 5.1 kg/m3.

**Q.** What about the mass density ([2]; 298.15 K, x1 = 0.498) of the same compound?
**A.** The mass density was 1025.5 ± 5.1 kg/m3.

**Q.** What about the mass density ([2]; 298.15 K, x1 = 0.591) of the same compound?
**A.** Its mass density is 1016.8 ± 5 kg/m3.

**Q.** What about the mass density ([2]; 298.15 K, x1 = 0.597) of the same compound?
**A.** The mass density was 1019.4 ± 5 kg/m3.

**Q.** And the mass density ([2]; 298.15 K, x1 = 0.692)?
**A.** Its mass density is 1013.5 ± 5 kg/m3.

**Q.** What about the mass density ([2]; 298.15 K, x1 = 0.696) of the same compound?
**A.** Its mass density is 1013.5 ± 5 kg/m3.

**Q.** And the mass density ([2]; 298.15 K, x1 = 0.793)?
**A.** The mass density was 1005.7 ± 4.9 kg/m3.

**Q.** What about the mass density ([2]; 298.15 K, x1 = 0.796) of the same compound?
**A.** The mass density was 1003.9 ± 4.9 kg/m3.

**Q.** What about the mass density ([2]; 298.15 K, x1 = 0.895) of the same compound?
**A.** The mass density was 997.4 ± 4.9 kg/m3.

**Q.** And the mass density ([2]; 298.15 K, x1 = 0.897)?
**A.** Its mass density is 999.2 ± 4.9 kg/m3.

**Q.** What about the mass density ([2]; 298.15 K, x1 = 0.995) of the same compound?
**A.** The mass density was 996 ± 4.9 kg/m3 and 994.9 ± 4.9 kg/m3.

**Q.** What about the mass density ([2]; 333.15 K, x1 = 0.1) of the same compound?
**A.** Its mass density is 1001.2 ± 4.9 kg/m3 and 1005.4 ± 4.9 kg/m3.

**Q.** What about the mass density ([2]; 333.15 K, x1 = 0.199) of the same compound?
**A.** The mass density was 1010.5 ± 5 kg/m3 and 1006.2 ± 4.9 kg/m3.

**Q.** What about the mass density ([2]; 333.15 K, x1 = 0.298) of the same compound?
**A.** Its mass density is 1010.6 ± 5.1 kg/m3.

**Q.** What about the mass density ([2]; 333.15 K, x1 = 0.299) of the same compound?
**A.** Its mass density is 1006.8 ± 5.1 kg/m3.

**Q.** And the mass density ([2]; 333.15 K, x1 = 0.398)?
**A.** Its mass density is 1006.1 ± 4.9 kg/m3 and 1005.1 ± 4.9 kg/m3.

**Q.** And the mass density ([2]; 333.15 K, x1 = 0.497)?
**A.** The mass density was 1000.6 ± 5.3 kg/m3.

**Q.** What about the mass density ([2]; 333.15 K, x1 = 0.498) of the same compound?
**A.** The mass density was 996.6 ± 5.3 kg/m3.

**Q.** And the mass density ([2]; 333.15 K, x1 = 0.591)?
**A.** The mass density was 990.3 ± 4.9 kg/m3.

**Q.** And the mass density ([2]; 333.15 K, x1 = 0.597)?
**A.** The mass density was 999 ± 4.9 kg/m3.

**Q.** And the mass density ([2]; 333.15 K, x1 = 0.692)?
**A.** The mass density was 982.6 ± 4.9 kg/m3.

**Q.** What about the mass density ([2]; 333.15 K, x1 = 0.696) of the same compound?
**A.** Its mass density is 989.6 ± 4.9 kg/m3.

**Q.** And the mass density ([2]; 333.15 K, x1 = 0.793)?
**A.** Its mass density is 976 ± 4.8 kg/m3.

**Q.** What about the mass density ([2]; 333.15 K, x1 = 0.796) of the same compound?
**A.** The mass density was 976.4 ± 4.8 kg/m3.

**Q.** And the mass density ([2]; 333.15 K, x1 = 0.895)?
**A.** The mass density was 968.9 ± 4.8 kg/m3.

**Q.** What about the mass density ([2]; 333.15 K, x1 = 0.897) of the same compound?
**A.** Its mass density is 969.3 ± 4.8 kg/m3.

**Q.** And the mass density ([2]; 333.15 K, x1 = 0.995)?
**A.** Its mass density is 967.3 ± 4.7 kg/m3 and 964.4 ± 4.7 kg/m3.

**Q.** For O [water], which mass density ([1]; 323.15 K) is on record?
**A.** The mass density was 988.04 ± 4.9 kg/m3.

**Q.** And the mass density ([1]; 333.15 K)?
**A.** Its mass density is 983.2 ± 4.8 kg/m3.

**Q.** With O [water] + C1CCNC1 as the compound, how does the mass density ([2]; 323.15 K, x2 = 0) read?
**A.** Its mass density is 988.04 ± 4.9 kg/m3.

**Q.** For O [water] + C1COCCN1, which mass density ([2]; 333.15 K, x2 = 0) is on record?
**A.** The mass density was 983.2 ± 4.8 kg/m3.
